Read-outs that look alike come from different tables or passages of the source.
Tests used:
CYP2C19 = CYP2C19 (Homo sapiens, UniProt P33261); test: Cytochrome P450 reaction phenotyping, recombinant CYP2C19 (Bactosomes); details: for Compound Remaining (% of 0 min): CYP2C19, 5 μM
Description: Incubations were also performed using control Bactosomes™ (no P450 enzymes present) to reveal any non-enzymatic degradation. Control compounds known to be metabolised specifically by each P450 isoform were included. All incubations were performed singularly for each test compound.
Incubations were also performed using control Bactosomes™ (no P450 enzymes present) to reveal any non-enzymatic degradation. Control compounds known to be metabolised specifically by each P450 isoform were included. All incubations were performed singularly for each test compound. […] The reactions were stopped by transferring an aliquot of incubate to quench solvent at the appropriate time points, in a 1:3 ratio. The termination plates were centrifuged at 3,000 rpm for 20 min at 4° C. to precipitate the protein.

OVCAR-3 = test: 2D monolayer CellTiter-Blue viability, ovarian cancer OVCAR-3; format: cell-based; details: for IC50: Homo sapiens; for Test/Control (%) at Drug Concentration: 72 h
Description: (§1) Mebendazole was tested in vitro across a panel of 12 tumor cell lines of ovarian and renal cancer by using a 2D monolayer assay. […] OVXF 899L and RXF 486L are P-gp expressing, multidrug resistant cell lines.
(§2) Anti-tumor activity is expressed as absolute and relative IC50/70 values, calculated by 4-parameter non-linear curve fit.

NBXF SH-SY5Y = test: 2D monolayer CellTiter-Blue viability, neuroblastoma SH-SY5Y; format: cell-based; details: 72 h
Description: Seventeen compounds, including mebendazole (Batch no. […] Efficacy of compounds was assessed using CellTiter-Blue® Cell Viability Assay. Anti-tumor activity is expressed as absolute and relative IC50 and IC70 values, calculated by non-linear regression analysis.

OVXF 1023L = test: 2D monolayer CellTiter-Blue viability, ovarian cancer OVXF 1023L; format: cell-based; details: for IC50: Homo sapiens, OVXF1023; for Test/Control (%) at Drug Concentration: 72 h
Description: as §1, §2

BCRP = molecular target: T1, BCRP (Homo sapiens, UniProt Q9UNQ0); test: in vitro
T1 sequence (Q9UNQ0 1-655): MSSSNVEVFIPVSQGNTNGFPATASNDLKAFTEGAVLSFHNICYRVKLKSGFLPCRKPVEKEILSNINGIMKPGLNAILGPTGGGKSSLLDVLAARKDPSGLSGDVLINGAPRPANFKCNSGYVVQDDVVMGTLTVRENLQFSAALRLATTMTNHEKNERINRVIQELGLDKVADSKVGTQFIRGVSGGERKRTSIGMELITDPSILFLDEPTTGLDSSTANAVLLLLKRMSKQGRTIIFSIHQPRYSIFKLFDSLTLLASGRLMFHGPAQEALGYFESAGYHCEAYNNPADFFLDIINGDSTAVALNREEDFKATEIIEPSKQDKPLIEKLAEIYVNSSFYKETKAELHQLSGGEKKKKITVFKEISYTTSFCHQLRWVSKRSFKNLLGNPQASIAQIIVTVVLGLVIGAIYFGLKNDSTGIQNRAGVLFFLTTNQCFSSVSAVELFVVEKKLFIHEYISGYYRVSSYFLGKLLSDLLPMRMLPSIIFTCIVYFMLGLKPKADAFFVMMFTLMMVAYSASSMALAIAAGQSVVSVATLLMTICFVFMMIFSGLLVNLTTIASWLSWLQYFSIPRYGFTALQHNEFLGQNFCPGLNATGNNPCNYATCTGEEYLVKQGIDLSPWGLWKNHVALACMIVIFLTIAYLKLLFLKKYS
Description: Bidirectional apparent permeability of test compound was quantified by LC-MS/MS and used to determine an efflux ratio.

CYP2C19, sequence (P33261 whole entry, canonical isoform): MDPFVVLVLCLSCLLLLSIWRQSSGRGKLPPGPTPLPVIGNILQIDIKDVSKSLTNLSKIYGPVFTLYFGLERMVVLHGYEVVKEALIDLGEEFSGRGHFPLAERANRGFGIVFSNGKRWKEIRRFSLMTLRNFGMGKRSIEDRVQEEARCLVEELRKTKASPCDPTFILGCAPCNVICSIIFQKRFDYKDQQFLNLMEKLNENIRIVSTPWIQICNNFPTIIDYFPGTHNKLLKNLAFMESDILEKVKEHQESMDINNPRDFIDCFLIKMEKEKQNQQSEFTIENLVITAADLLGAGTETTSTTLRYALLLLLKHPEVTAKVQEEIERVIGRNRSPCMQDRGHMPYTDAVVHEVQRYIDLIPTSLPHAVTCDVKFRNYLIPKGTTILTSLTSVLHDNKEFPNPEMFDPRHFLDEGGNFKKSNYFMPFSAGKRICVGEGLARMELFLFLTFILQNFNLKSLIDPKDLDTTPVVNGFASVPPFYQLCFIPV

With `COC(=O)Nc1nc2ccc(C(=O)c3ccccc3)cc2[nH]1` [Mebendazole, methyl N-(6-benzoyl-1H-benzimidazol-2-yl)carbamate] the “Compound Remaining (% of 0 min)” value (CYP2C19; 0 min) was 100 % of 0 min, the “Compound Remaining (% of 0 min)” value (CYP2C19; 5 min) was 92.6 % of 0 min and the “Compound Remaining (% of 0 min)” value (CYP2C19; 15 min) was 82.1 % of 0 min. For the same compound, the “Compound Remaining (% of 0 min)” value (CYP2C19; 30 min) was 76.3 % of 0 min, the “Compound Remaining (% of 0 min)” value (CYP2C19; 45 min) was 70.5 % of 0 min and the half-life at 5 μM (CYP2C19; human, recombinant CYP2C19 (Bactosomes), pH 7.4) was 93 min. For the same compound, the IC50 (OVCAR-3; OVCAR-3, 72 h, read-out: Abs. IC50) was 426 nM, the IC50 (OVCAR-3; OVCAR-3, 72 h, read-out: Rel. IC50) was 362 nM and the “Test/Control (%) at Drug Concentration” value (OVCAR-3; OVCAR-3, 1.0E+00 μM) was 27%. The “Test/Control (%) at Drug Concentration” value (OVCAR-3; OVCAR-3, 1.0E−01 μM) was 95%, the “Test/Control (%) at Drug Concentration” value (OVCAR-3; OVCAR-3, 1.0E−02 μM) was 97% and the “Test/Control (%) at Drug Concentration” value (OVCAR-3; OVCAR-3, 1.0E−03 μM) was 89%. The “Test/Control (%) at Drug Concentration” value (OVCAR-3; OVCAR-3, 1.0E−04 μM) was 97%, the “Test/Control (%) at Drug Concentration” value (OVCAR-3; OVCAR-3, 3.2E+00 μM) was 26% and the “Test/Control (%) at Drug Concentration” value (OVCAR-3; OVCAR-3, 3.2E−01 μM) was 69%. For the same compound, the “Test/Control (%) at Drug Concentration” value (OVCAR-3; OVCAR-3, 3.2E−02 μM) was 90%, the “Test/Control (%) at Drug Concentration” value (OVCAR-3; OVCAR-3, 3.2E−03 μM) was 93% and the “Test/Control (%) at Drug Concentration” value (OVCAR-3; OVCAR-3, 3.2E−04 μM) was 103%. For the same compound, the “Abs. IC70” value (OVCAR-3; OVCAR-3, 72 h) was 0.749 µM, the “Rel. IC70” value (OVCAR-3; OVCAR-3, 72 h) was 0.447 µM and the “Bot. (%)” value (OVCAR-3; OVCAR-3, 72 h, curve fit) was 26%. The “Top (%)” value (OVCAR-3; OVCAR-3, 72 h, curve fit) was 95%, the “Test/Control (%) at Drug Concentration” value (NBXF SH-SY5Y; 1.0E+00 μM) was 1% and the “Test/Control (%) at Drug Concentration” value (NBXF SH-SY5Y; 1.0E+01 μM) was 0%. For the same compound, the “Test/Control (%) at Drug Concentration” value (NBXF SH-SY5Y; 1.0E+02 μM) was −1%, the “Test/Control (%) at Drug Concentration” value (NBXF SH-SY5Y; 1.0E−01 μM) was 63% and the “Test/Control (%) at Drug Concentration” value (NBXF SH-SY5Y; 1.0E−02 μM) was 81%. For the same compound, the “Test/Control (%) at Drug Concentration” value (NBXF SH-SY5Y; 3.2E+00 μM) was 1%, the “Test/Control (%) at Drug Concentration” value (NBXF SH-SY5Y; 3.2E+01 μM) was 0% and the “Test/Control (%) at Drug Concentration” value (NBXF SH-SY5Y; 3.2E−01 μM) was 6%. For the same compound, the “Test/Control (%) at Drug Concentration” value (NBXF SH-SY5Y; 3.2E−02 μM) was 78%, the “Test/Control (%) at Drug Concentration” value (NBXF SH-SY5Y; 3.2E−03 μM) was 94% and the IC50 (OVXF 1023L; OVXF 1023, 72 h, read-out: Abs. IC50) was over 3.2 µM. The IC50 (OVXF 1023L; OVXF 1023, 72 h, read-out: Rel. IC50) was over 3.2 µM, the “Test/Control (%) at Drug Concentration” value (OVXF 1023L; OVXF 1023, 1.0E+00 μM) was 69% and the “Test/Control (%) at Drug Concentration” value (OVXF 1023L; OVXF 1023, 1.0E−01 μM) was 94%. The “Test/Control (%) at Drug Concentration” value (OVXF 1023L; OVXF 1023, 1.0E−02 μM) was 101%, the “Test/Control (%) at Drug Concentration” value (OVXF 1023L; OVXF 1023, 1.0E−03 μM) was 104% and the “Test/Control (%) at Drug Concentration” value (OVXF 1023L; OVXF 1023, 1.0E−04 μM) was 107%. For the same compound, the “Test/Control (%) at Drug Concentration” value (OVXF 1023L; OVXF 1023, 3.2E+00 μM) was 62%, the “Test/Control (%) at Drug Concentration” value (OVXF 1023L; OVXF 1023, 3.2E−01 μM) was 82% and the “Test/Control (%) at Drug Concentration” value (OVXF 1023L; OVXF 1023, 3.2E−02 μM) was 98%. For the same compound, the “Test/Control (%) at Drug Concentration” value (OVXF 1023L; OVXF 1023, 3.2E−03 μM) was 101%, the “Test/Control (%) at Drug Concentration” value (OVXF 1023L; OVXF 1023, 3.2E−04 μM) was 103% and the “Abs. IC70” value (OVXF 1023L; OVXF 1023, 72 h) was over 3.200 µM. The “Rel. IC70” value (OVXF 1023L; OVXF 1023, 72 h) was over 3.200 µM, the “Bot. (%)” value (OVXF 1023L; OVXF 1023, 72 h, curve fit) was 2% and the “Top (%)” value (OVXF 1023L; OVXF 1023, 72 h, curve fit) was 105%. The efflux ratio at 120 min, 10 μM (BCRP; Caco-2) was 1.23, the Papp A→B at 120 min, 10 μM (BCRP; Caco-2, Papp Mean) was 23.5 ×10⁻⁶ cm/s and the Papp B→A at 120 min, 10 μM (BCRP; Caco-2, Papp Mean) was 29 ×10⁻⁶ cm/s. The Papp A→B at 120 min, 10 μM (BCRP; Caco-2, Papp Rep 1) was 19.7 ×10⁻⁶ cm/s, the Papp B→A at 120 min, 10 μM (BCRP; Caco-2, Papp Rep 1) was 28.2 ×10⁻⁶ cm/s and the Papp A→B at 120 min, 10 μM (BCRP; Caco-2, Papp Rep 2) was 27.4 ×10⁻⁶ cm/s. It also gave a Papp B→A at 120 min, 10 μM (BCRP; Caco-2, Papp Rep 2) of 29.8 ×10⁻⁶ cm/s and a recovery at 120 min, 10 µM (BCRP; Caco-2, calculated mean % recovery values (range)) of 52 to 75.7%.

— patent publication US20220125765A1, “PHARMACEUTICAL COMBINATIONS COMPRISING MEBENDAZOLE AND A STRONG OR MODERATE CYP1A2 INHIBITOR” (ZEPHAPHARM LTD, priority 2019, published 2022)
